In PubChem BioAssay AID702 (NMMLSC, 2007):
Records with an inconclusive call do not appear. Active and inactive are the calls of the source. How the calls were made is not given here.

target: Integrin alpha-4 (Homo sapiens) (UniProt P13612); assay: inhibition of LDV ligand binding to VLA-4 – cell-based, LDV-FITC binding, flow cytometry, dose response (AID 702)
Sequence (P13612 whole entry, looked up): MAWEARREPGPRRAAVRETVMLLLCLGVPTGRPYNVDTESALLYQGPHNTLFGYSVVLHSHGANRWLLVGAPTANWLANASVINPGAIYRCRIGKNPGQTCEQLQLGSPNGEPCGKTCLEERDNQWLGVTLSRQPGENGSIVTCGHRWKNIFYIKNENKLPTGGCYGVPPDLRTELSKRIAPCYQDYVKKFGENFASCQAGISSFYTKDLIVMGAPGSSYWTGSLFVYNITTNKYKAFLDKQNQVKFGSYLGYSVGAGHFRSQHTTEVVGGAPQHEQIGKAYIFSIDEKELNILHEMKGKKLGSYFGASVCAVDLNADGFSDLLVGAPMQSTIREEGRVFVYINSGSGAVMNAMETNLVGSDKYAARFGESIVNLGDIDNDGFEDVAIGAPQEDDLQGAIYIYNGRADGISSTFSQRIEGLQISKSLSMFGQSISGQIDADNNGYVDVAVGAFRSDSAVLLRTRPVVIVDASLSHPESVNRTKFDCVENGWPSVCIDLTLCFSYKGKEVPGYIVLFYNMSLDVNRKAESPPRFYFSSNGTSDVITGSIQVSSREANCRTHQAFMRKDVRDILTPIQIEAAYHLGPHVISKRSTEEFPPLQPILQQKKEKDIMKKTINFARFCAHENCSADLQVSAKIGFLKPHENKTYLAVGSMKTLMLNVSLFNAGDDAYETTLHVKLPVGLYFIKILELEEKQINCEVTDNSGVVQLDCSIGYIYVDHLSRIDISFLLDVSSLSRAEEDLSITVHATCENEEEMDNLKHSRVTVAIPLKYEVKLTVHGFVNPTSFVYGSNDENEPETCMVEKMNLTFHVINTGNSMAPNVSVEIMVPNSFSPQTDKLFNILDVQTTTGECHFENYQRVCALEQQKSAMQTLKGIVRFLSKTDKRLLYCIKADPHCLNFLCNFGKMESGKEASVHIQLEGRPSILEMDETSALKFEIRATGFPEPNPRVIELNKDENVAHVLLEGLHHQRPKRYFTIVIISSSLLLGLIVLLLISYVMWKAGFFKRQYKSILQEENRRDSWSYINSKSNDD

| SMILES | outcome | EC50 |
| --- | --- | --- |
| O=C(O)CCCn1c(=O)[nH]c2cc3c(cc2c1=O)OCO3 | inactive |  |
| CCCCCNC(=O)CCCCn1c(=O)[nH]c2cc(OCC)c(OCC)cc2c1=O |  | 4.6 µM |
| CCCOc1ccc(C(CC(=O)O)NC(=O)C23CC4CC(CC(C4)C2)C3)cc1 (stereo not given) |  | 0.08 µM |
| CCOc1cc2[nH]c(=O)n(CC3CCC(C(=O)NCCC(C)C)CC3)c(=O)c2cc1OCC (stereo not given) |  | 2.34 µM |
| O=C1C(CCS(=O)c2ccccc2)C(=O)N(c2ccccc2)N1c1ccccc1 (stereo not given) |  | 17.3 µM |
| COc1cccc2sc(Nc3nnc(-c4ccccc4Cl)o3)nc12 |  | 5.14 µM |
| CCOc1cc2[nH]c(=O)n(CCCC(=O)N3CCCC3)c(=O)c2cc1OCC | inactive |  |
| CCOc1ccc(C(CC(=O)O)NC(=O)C23CC4CC(CC(C4)C2)C3)cc1 (stereo not given) |  | 0.09 µM |
| CCCCN1C(=O)C(c2ccccc2)N(c2ccccc2)C1=O (stereo not given) | inactive |  |
| CC(C)Oc1ccc(C(CC(=O)O)NC(=O)C2CCCCC2)cc1 (stereo not given) |  | 4.13 µM |
| CCOc1cc2[nH]c(=O)n(CCCN3CCCC3=O)c(=O)c2cc1OCC | inactive |  |
| N/C(=N/O)c1nc(N2CCCC2)nc(N(c2ccccc2)c2ccccc2)n1 |  | 20.2 µM |
| O=C(NCC12CC3CC(CC(C3)C1)C2)c1nn2c(c1Cl)NC(c1ccco1)CC2C(F)(F)F (stereo not given) | inactive |  |
| CCCCN1C(=O)NC(c2ccccc2)C1=O (stereo not given) | inactive |  |
| CCOc1cc2[nH]c(=O)n(CCC(=O)NCCOC)c(=O)c2cc1OCC | inactive |  |
| COc1cccc2sc(Nc3nc(C)c(C(C)=O)s3)nc12 | inactive |  |
| O=C1NC(=O)C(c2ccccc2)N1 (stereo not given) | inactive |  |
| CCOc1cc2[nH]c(=O)n(CCCCC(=O)NC3CCCCCC3)c(=O)c2cc1OCC |  | 5.13 µM |
| COc1cccc2sc(Nc3nc(-c4ccncc4)cs3)nc12 | inactive |  |
| CCOc1cc2[nH]c(=O)n(CC3CCC(C(=O)NC(C)CC)CC3)c(=O)c2cc1OCC (stereo not given) |  | 4.27 µM |
| C=C(C)C1Cc2c(C)nn(-c3nc(C)cc(C)n3)c2C1 (stereo not given) |  | 45.1 µM |
| Cn1c(=O)cc(SCC(=O)N2CCN(C3CCCCC3)CC2)c2ccccc21 | inactive |  |
| COc1ccccc1-c1nnc(Nc2nc3c(OC)cccc3s2)o1 | inactive |  |
| COc1cc2[nH]c(=O)n(CCCC(=O)N3CCOCC3)c(=O)c2cc1OC | inactive |  |

Next, values leading:

| outcome | EC50 | SMILES |
| --- | --- | --- |
| inactive |  | COc1cc(Cn2c(-c3nonc3N)nc3ccccc32)ccc1C |
| inactive |  | CCCCC1(C)C(=O)N(c2ccccc2)N(c2ccccc2)C1=O |
| inactive |  | CCOc1cc2[nH]c(=O)n(CCCC(=O)NCc3ccco3)c(=O)c2cc1OCC |
|  | 6.5 µM | Cc1onc(-c2ccccc2)c1C(=O)NC(CC(=O)O)c1ccc(OC(C)C)cc1 (stereo not given) |
|  | 14.1 µM | O=C(Cn1nc(-c2ccc3c(c2)OCCO3)ccc1=O)Nc1ccc(N2CCOCC2)cc1 |
| inactive |  | CCOc1cc2[nH]c(=O)n(CCCCCC(=O)NCc3ccco3)c(=O)c2cc1OCC |
| inactive |  | O=C1NC(=O)N(c2ccccc2)C1c1ccccc1 (stereo not given) |
|  | 52.6 µM | Cc1cc(C)cc(-n2ccnc(SCC(=O)Nc3ccc(Cl)cc3F)c2=O)c1 |
|  | 1.06 µM | CCCCC1C(=O)N(c2ccccc2)N(c2ccccc2)C1=O |
| inactive |  | CCCCC1(C(=O)O)C(=O)N(c2ccccc2)N(c2ccccc2)C1=O |
| inactive |  | COc1cc2[nH]c3c(N4CCN(c5ccccn5)CC4)ncnc3c2cc1OC |
|  | 31.8 µM | Cc1oc2cc(O)ccc2c(=O)c1Oc1ccccc1Br |
| inactive |  | CCCCN1C(=O)N(c2ccccc2)C(CCCC)(c2ccccc2)C1=O (stereo not given) |
| inactive |  | COc1cc2[nH]c(=O)n(CCC(=O)NCc3cccnc3)c(=O)c2cc1OC |
| inactive |  | COc1cc2[nH]c(=O)n(CCC(=O)N3CCc4ccccc4C3)c(=O)c2cc1OC |
| inactive |  | CCCCC1(O)C(=O)N(c2ccccc2)N(c2ccccc2)C1=O |
